The text below walks through data of publication PMC12265377, “CC48 a new CB2R agonist/FAAH inhibitor dual drug blocks gastric cancer progression and overcomes paclitaxel resistance” (Journal of Experimental & Clinical Cancer Research : CR, 2025).

In series [1] the test system is HGC27-S/R and AGS cell lines. The series is described as follows: Autophagy assay (western blot of autophagy proteins). The settings on record: 48 h, 1 and 10 µM (AM630 1 and 6 µM). The series is classed as cell-based, human. Here is the method: Cells were rinsed with ice-cold lysis buffer (50 mM Tris,10 mM EDTA, 1% v/v Triton-X100), supplemented with protease inhibitor cocktail set III (80 µM aprotinin, 5 mM bestatin, 1.5 mM leupeptin, 1 mM pepstatin; Sigma-Merck, St. Louis, MO), 2 mM phenylmethyl sulfonyl fluoride and 1 mM Na3VO4, then sonicated and centrifuged at 13,000 g for 10 min at 4 °C. 20 µg protein extracts were subjected to SDS-PAGE and probed with the following antibodies: anti-ATG5 (#ab108327, diluted 1:1000), anti-ATG7 (#ab52472, diluted 1:5000), anti-ATG12 (#ab303488, diluted 1:1000), anti-Beclin (#ab210498, diluted 1:1000), anti-p62 (#ab109012, diluted 1:10000), anti-LC3 (#ab192890, diluted 1:2000)(all from Abcam, Cambridge, UK) or anti-β-tubulin antibody (#sc-5274, diluted 1:1000; Santa Cruz Biotechnology Inc.,Santa Cruz, CA, USA), followed by incubation with a peroxidase conjugated secondary antibody (Bio-Rad Laboratories, Hercules, CA). After washing in Tris-buffered saline (TBS)-Tween 0.1% v/v solution, proteins were detected by enhanced chemiluminescence (Bio-Rad Laboratories).Total protein expression was quantified using the ImageJ software (http://rsb.info.nih.gov/ij/). The expression level of each of the investigated protein was normalized to the β-tubulin level.
Background: Immunoblotting shows a protein as a band on a membrane.

The target of the next series is T1, FAAH Human recombinant (Homo sapiens, UniProt O00519).
T1 construct: purchased Cayman Chemical
T1 sequence (O00519 1-579): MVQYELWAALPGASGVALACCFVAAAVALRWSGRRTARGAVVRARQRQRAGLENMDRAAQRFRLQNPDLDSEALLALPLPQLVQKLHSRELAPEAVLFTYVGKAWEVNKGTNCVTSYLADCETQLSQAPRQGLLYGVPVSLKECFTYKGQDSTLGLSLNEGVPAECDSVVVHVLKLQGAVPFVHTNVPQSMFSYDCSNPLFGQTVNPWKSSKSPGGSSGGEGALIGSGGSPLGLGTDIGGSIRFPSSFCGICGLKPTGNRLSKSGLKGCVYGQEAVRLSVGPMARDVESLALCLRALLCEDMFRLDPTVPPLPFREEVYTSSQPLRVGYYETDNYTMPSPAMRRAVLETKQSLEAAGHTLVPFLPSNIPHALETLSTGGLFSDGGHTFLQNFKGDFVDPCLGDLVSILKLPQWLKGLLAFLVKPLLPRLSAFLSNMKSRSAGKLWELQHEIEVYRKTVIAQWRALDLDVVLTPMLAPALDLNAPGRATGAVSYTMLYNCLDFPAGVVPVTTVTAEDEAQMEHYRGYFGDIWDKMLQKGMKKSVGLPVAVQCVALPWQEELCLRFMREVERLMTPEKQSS
The series is described as follows: FAAH inhibition assay. It is filed as biochemical. To be noted: ± SEM, substrate AMC-AA 1 µM. How it is done: Assays were performed using 96-well black flat-bottom microtiter NBS plates (COSTAR flat black). […] The substrate (7-amino-4-methyl-2 H-1-benzopyran-2-one-5Z,8Z,11Z,14Z-eicosatetraen-amide, AMC-AA, 1µM final concentration) was then added, and the assay was incubated for 2 h at 37 °C in a TECAN infinite M1000Pro plate reader (Tecan, Männedorf, Switzerland) which measured the fluorescence from each well every 30 s (λex = 340 nm, λem = 450 nm), determining FAAH activity as relative fluorescence units (RFU). Control wells lacking the inhibitor and blank wells lacking both inhibitor and enzyme were used to calculate the percent inhibition for each tested compound. IC50 values were calculated via GraphPad Prism 5.0 (GraphPad Software, La Jolla, CA, USA) and are reported as mean ± SEM of at least three independent measurements performed in triplicate.

The test system of a further series is AGS cells. The series is described as follows: Muse Annexin V apoptosis assay. To be noted: 48 h, 6 µM AM630, 10 µM others. It is filed as cell-based, human. The source says: (§1) After the specified drug treatments, the cells were processed using the Muse Annexin V/Dead Cell Assay Kit (Luminex Corporation, Austin, USA) for quantitative analysis of live, early/ late apoptotic, and dead cells on a Muse Cell Analyzer. Briefly, the assay utilized Annexin V to detect phosphatidylserine on the external membrane of apoptotic cells. The fluorescent signal emitted by dye-conjugated antibodies was detected by flow cytometry technology (Muse Cell Analyzer, Luminex Corporation, Austin, USA). 7-Amino-Actinomycin D (7-AAD) dead cell marker was also used. The cells were then analyzed according to the user’s guide. […] After 48 h treatments the cells were processed according to the user’s guide and analyzed with the Muse caspase-3/7 kit (Millipore).The assay provides the relative percentage of living, early/late apoptotic or dead cells.

Series [2] has as its system HGC27-S cells. The experiment in a line: Muse Annexin V apoptosis assay. It is filed as cell-based, human. To be noted: 48 h, 6 µM AM630, 10 µM others.
Text: as §1

Series [3] concerns HGC27-S/R and AGS cell lines. The series is described as follows: VEGFA in cell culture medium (ELISA), all lines. It is filed as cell-based, human. To be noted: all the cell lines investigated, 48 h. How it is done:
(§2) The amount of VEGFA secreted in the culture medium by HGC27-S/R and AGS treated cells was measured using a highly sensitive Enzyme-Linked Immunosorbent Assay (ELISA), Quantikine Kit ELISA (R&D Systems, Minneapolis, MN, USA), according to the manufacturer’s instructions. The measured values were normalized to the number of cells.

For series [4], the system named is HGC27-S cells. The experiment in a line: VEGFA in cell culture medium (ELISA). It is filed as cell-based, human. To be noted: 10 µM, 48 h, untreated 3.82. Here is the method:
as §2
(In general: An ELISA detects its analyte on a solid surface through an enzyme-linked reagent.)

The test system of a further series is NCI-N87_LUC cell line. The series is described as follows: Ki67 immunohistochemistry of tumor explants. The series is classed as in vivo, CD1-nude female mice. The settings on record: GP2/GP3 (10 and 20 mg/kg); vehicle 35%. How it is done: Tissue blocks fixed in formalin and embedded in paraffin were obtained from the explants of the tumor masses of each specimen. Sections stained with hematoxylin and eosin (H&E) were reviewed by a pathologist to confirm the adequacy of the sample, and to evaluate the morphologic and/or pathological characteristics of each sample. […] IHC analysis was carried out in sections after deparaffinization for 30 min and then rehydration in grades of alcohol. Antigen retrieval was performed at 90 °C for 20 min with Tris-borate-EDTA Buffer. To assess the Ki67, IHC was again carried out on all cases on paraffin-embedded sections using an anti-Ki67 Ab diluted 1:100 (Mib-1; DAKO) following the manufacturer’s instructions.

Another series concerns CB1R. Details: method as in PMID 36657299. To be noted: cited from earlier work.
The nature of series [5]: Body weight, serum biochemistry and urinalysis in treated mice. To be noted: GP2 and GP3 (10 and 20 mg/kg).
Description: All the animals were fed ad libitum with complete mouse feed, and water was provided ad libitum. The body weight for each animal was recorded weekly, starting from day 0 until the end of the study.
Physical observations of health status, including visual checks on the mice general appearance (e.g. fur and activity levels/responsiveness), were made daily. On day 45, the animals were individually housed in metabolic cages for 24 h, with free access to water and food, in order to perform urine collection and urinalysis. Immediately before metabolic cage housing, animals were subjected to a water load (10 mL/kg by oral gavage) in order to allow urine volume normalization. In addition, blood samples were taken from the submandibular vein after isoflurane anesthesia and before sacrifice at the end of the study period. The blood was collected in Eppendorf tubes and then centrifuged at about 8,000 rpm for 15 min at 4 °C for serum collection.

Take `CCCCCNc1ccccc1C(=O)NC12CC3CC(CC(C3)C1)C2` [ASF151]: the “expression of autophagy proteins (ATG5, ATG7, ATG12, Beclin-1, p62, LC3-II)” value in series [1] is “less potent inducer of some autophagy-related proteins”.

For `COc1ccc(C(=O)c2c(C)n(CCN3CCOCC3)c3cc(I)ccc23)cc1` [AM630, reference compound], on FAAH Human recombinant, the “FAAHi IC50” value is recorded as “low FAAH inhibition activity”. In addition, the IC50 on FAAH Human recombinant (read-out: FAAHi IC50) amounted to 20 ± 2.8 µM. In [1], the “expression of autophagy proteins (ATG5, ATG7, ATG12, Beclin-1, p62, LC3-II)” value is on record as “dose-dependent increase of autophagic proteins”. For the same compound, the “increase in apoptotic cells compared to untreated cells (Annexin V)” value (from here on “increase in apoptotic cells”) with AGS cells and in the series on HGC27-S cells [2] was 8 fold throughout. Moreover, the “VEGFA secretion in culture medium (in words)” value in series [3] was “increase in VEGFA secretion”.

As to `O=C(NC12CC3CC(CC(C3)C1)C2)c1ccccc1OCc1ccccc1` [CC48], in the series with AGS cells, the “increase in apoptotic cells” value is reported as 6 fold. Also, the “increase in apoptotic cells” value with HGC27-S cells [2] is 2 fold. Further, the “VEGFA secretion in culture medium” value in the series on HGC27-S cells [4] is listed as 2.6 pg/mL/cell. The “percentage of Ki67-stained nuclei in tumor” value with NCI-N87_LUC cell line is recorded as 15–20%. Besides, the EC50 in the series with CB1R is 0.489 µM. Moreover, in series [5], the “body weight vs vehicle” value was “No statistically significant differences were observed”; the “serum AST, ALT, Cre, UREA and GFR vs vehicle” value is recorded as “No statistically significant differences in biochemical results”.

For orientation: IC50 means the point on the concentration scale where inhibition reaches its midpoint. The term EC50 denotes the midpoint of the concentration-response curve.
